Source: patent US10766865B2, “PKM2 modulators and methods for their use” (TOLERO PHARMACEUTICALS, INC., priority 2012, dated 2020)

Target: PKM2 (Homo sapiens, UniProt P14618)
Assay: PKM2 Biochemical Assay
Settings: not given

Sequence of PKM2 (P14618 whole entry): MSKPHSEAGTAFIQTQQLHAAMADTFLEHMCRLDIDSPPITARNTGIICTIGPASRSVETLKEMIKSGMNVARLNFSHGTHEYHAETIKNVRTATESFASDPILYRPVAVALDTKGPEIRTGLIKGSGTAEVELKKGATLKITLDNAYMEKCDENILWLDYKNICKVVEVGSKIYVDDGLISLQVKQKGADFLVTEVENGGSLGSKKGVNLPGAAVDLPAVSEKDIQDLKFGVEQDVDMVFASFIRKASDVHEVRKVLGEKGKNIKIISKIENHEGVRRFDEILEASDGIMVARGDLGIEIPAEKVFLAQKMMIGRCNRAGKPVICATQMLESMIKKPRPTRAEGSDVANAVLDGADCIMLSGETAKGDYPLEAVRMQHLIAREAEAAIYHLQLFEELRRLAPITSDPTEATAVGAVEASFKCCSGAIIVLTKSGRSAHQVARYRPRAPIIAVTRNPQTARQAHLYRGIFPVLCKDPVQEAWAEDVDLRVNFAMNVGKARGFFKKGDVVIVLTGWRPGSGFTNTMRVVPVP

`CC(C)(O)CCN(Cc1ccc(O)cc1F)C(=O)c1cc(C(F)(F)F)n[nH]1` [Example 131, N-(2-fluoro-4-hydroxybenzyl)-3-(trifluoromethyl)-N-(3-hydroxy-3-methylbutyl)-1H-pyrazole-5-carboxamide] showed an AC50 of 23 µM.

Same assay, conditions: % maximum response in a biochemical assay as compared with Fructose 1,6-bisphosphate

Point of comparison: `O=C(c1cc(C(F)(F)F)n[nH]1)N(Cc1cccc(Cl)c1O)CC1CCC1` [Example 141, N-(3-chloro-2-hydroxybenzyl)-N-(cyclobutylmethyl)-3-(trifluoromethyl)-1H-pyrazole-5-carboxamide], “Max. Resp.” value 100%. Against it:
- O=C(c1cc(C(F)(F)F)n[nH]1)N(CCN1CCS(=O)(=O)CC1)Cc1ccccc1F [Example 108] — lower, 92%
- O=C(c1cc(C(F)(F)F)n[nH]1)N(CCN1CCS(=O)(=O)CC1)Cc1c(F)cccc1F [Example 109] — lower, 94%
- O=C(c1cc(C(F)(F)F)n[nH]1)N(CCN1CCS(=O)(=O)CC1)Cc1c(Cl)cccc1Cl [Example 110] — lower, 84%
- O=C(c1cc(C(F)(F)F)n[nH]1)N(CCN1CCS(=O)(=O)CC1)Cc1cccc(F)c1F [Example 111] — lower, 64%
- Nc1cccc(CN(CCN2CCS(=O)(=O)CC2)C(=O)c2cc(C(F)(F)F)n[nH]2)c1 [Example 112] — lower, 91%
- CC[C@](C)(N)C(=O)Oc1ccc(CN(CC2CCC2)C(=O)c2cc(Cl)n[nH]2)c(F)c1 [Example 115, (S)-4-((3-chloro-N-(cyclobutylmethyl)-1H-pyrazole-5-carboxamido)methyl)-3-fluorophenyl 2-amino-2-methylbutanoate] — higher, 104%
- CN(C)Cc1c[nH]c2cccc(CN(CC3CCC3)C(=O)c3cc(Cl)n[nH]3)c12 [Example 118, 3-CHLORO-N-(CYCLOBUTYLMETHYL)-N-((3-((DIMETHYLAMINO)METHYL)-1H-INDOL-4-YL)METHYL)-1H-PYRAZOLE-5-CARBOXAMIDE] — the same, 100%
- O=C(c1cc(Cl)n[nH]1)N(Cc1cccc2[nH]cnc12)CC1CCC1 [Example 119, N-((1H-benzo[d]imidazol-4-yl)methyl)-3-chloro-N-(cyclobutylmethyl)-1H-pyrazole-5-carboxamide] — the same, 100%
- O=C(c1cc(Br)n[nH]1)N(Cc1cccc2[nH]cnc12)CC1CCC1 [Example 120, N-((1H-benzo[d]imidazol-4-yl)methyl)-3-bromo-N-(cyclobutylmethyl)-1H-pyrazole-5-carboxamide] — the same, 100%
- O=C(c1cc(C(F)(F)F)n[nH]1)N(Cc1cccc2[nH]cnc12)CC1CCC1 [Example 123, N-((1H-benzo[d]imidazol-4-yl)methyl)-N-(cyclobutylmethyl)-3-(trifluoromethyl)-1H-pyrazole-5-carboxamide] — the same, 100%
- O=C(c1cc(C(F)(F)F)n[nH]1)N(Cc1ccc(O)cc1Cl)CC1CCC1 [Example 124, N-(2-chloro-4-hydroxybenzyl)-N-(cyclobutylmethyl)-3-(trifluoromethyl)-1H-pyrazole-5-carboxamide] — the same, 100%
- O=C(c1cc(Br)n[nH]1)N(Cc1ccc(O)cc1Cl)CC1CCC1 [Example 125, N-(2-chloro-4-hydroxybenzyl)-3-bromo-N-(cyclobutylmethyl)-1H-pyrazole-5-carboxamide] — the same, 100%
- O=C(c1cc(C(F)(F)F)n[nH]1)N(Cc1ccccc1Cl)CC1CCC1 [Example 127, N-(2-chlorobenzyl)-N-(cyclobutylmethyl)-3-(trifluoromethyl)-1H-pyrazole-5-carboxamide] — the same, 100%
- O=C(c1cc(C(F)(F)F)n[nH]1)N(Cc1ccncc1Cl)CC1CCC1 [Example 128, N-((3-chloropyridin-4-yl)methyl)-N-(cyclobutylmethyl)-3-(trifluoromethyl)-1H-pyrazole-5-carboxamide] — lower, 75%
- O=C(c1cc(C(F)(F)F)n[nH]1)N(CCC(F)(F)F)Cc1ccc(O)cc1F [Example 130, N-(2-fluoro-4-hydroxybenzyl)-3-(trifluoromethyl)-N-(3,3, trifluoropropyl)-1H-pyrazole-5-carboxamide] — the same, 100%
- O=C(c1cc(C(F)(F)F)n[nH]1)N(Cc1ccc(O)cc1F)C1CCCC1 [Example 132, N-(2-fluoro-4-hydroxybenzyl)-N-cyclopentyl-3-(trifluoromethyl)-1H-pyrazole-5-carboxamide] — the same, 100%
- NCCN(Cc1ccc(O)cc1F)C(=O)c1cc(C(F)(F)F)n[nH]1 [Example 133, N-(2-fluoro-4-hydroxybenzyl)-N-(2-aminoethyl)-3-(trifluoromethyl)-1H-pyrazole-5-carboxamide] — the same, 100%
- Nc1ccc(CN(CC2CCC2)C(=O)c2cc(C(F)(F)F)n[nH]2)c(Cl)c1 [Example 134, N-(4-amino-2-chlorobenzyl)-N-(cyclobutylmethyl)-3-(trifluoromethyl)-1H-pyrazole-5-carboxamide] — the same, 100%
- O=C(c1cc(C(F)(F)F)n[nH]1)N(Cc1cccc2[nH]ccc12)NC1CCC1 [Example 135, N-((1H-INDOL-4-YL)METHYL)-N′-CYCLOBUTYL-3-(TRIFLUOROMETHYL)-1H-PYRAZOLE-5-CARBOHYDRAZIDE] — the same, 100%
- O=C(c1cc(C(F)(F)F)n[nH]1)N(Cc1cccc(F)c1O)CC1CCC1 [Example 136, N-(3-fluoro-2-hydroxybenzyl)-N-(cyclobutylmethyl)-3-(trifluoromethyl)-1H-pyrazole-5-carboxamide] — the same, 100%
- O=C(c1cc(C(F)(F)F)n[nH]1)N(CCO)Cc1ccc(O)cc1F [Example 137, N-(2-fluoro-4-hydroxybenzyl)-3-(trifluoromethyl)-N-(2-hydroxyethyl)-1H-pyrazole-5-carboxamide] — lower, 70%
- O=C(c1cc(C(F)(F)F)n[nH]1)N(Cc1ccc(O)cc1F)C1CCCCC1 [Example 139, N-(2-fluoro-4-hydroxybenzyl)-N-cyclohexyl-3-(trifluoromethyl)-1H-pyrazole-5-carboxamide] — the same, 100%
- O=C(c1cc(C(F)(F)F)n[nH]1)N(CCC1CC1)Cc1ccc(O)cc1F [Example 140, N-(2-fluoro-4-hydroxybenzyl)-N-(2-cyclopropylethyl)-3-(trifluoromethyl)-1H-pyrazole-5-carboxamide] — the same, 100%
- COCCN(Cc1ccc(O)cc1F)C(=O)c1cc(C(F)(F)F)n[nH]1 [Example 142, N-(2-fluoro-4-hydroxybenzyl)-3-(trifluoromethyl)-N-(2-methoxyethyl)-1H-pyrazole-5-carboxamide] — the same, 100%
- CCN(CC)CCN(Cc1ccc(O)cc1F)C(=O)c1cc(C(F)(F)F)n[nH]1 [Example 143, N-(2-fluoro-4-hydroxybenzyl)-N-(2-(diethylamino)ethyl)-3-(trifluoromethyl)-1H-pyrazole-5-carboxamide] — the same, 100%
- CCN(CC)CCN(Cc1ccccc1F)C(=O)c1cc(C(F)(F)F)n[nH]1 [Example 148, N-(2-fluorobenzyl)-N-(2-(diethylamino)ethyl)-3-(trifluoromethyl)-1H-pyrazole-5-carboxamide] — the same, 100%
- O=C(c1cc(C(F)(F)F)n[nH]1)N(CCC1CC1)Cc1ccccc1F [Example 149, N-(2-fluorobenzyl)-N-(2-cyclopropylethyl)-3-(trifluoromethyl)-1H-pyrazole-5-carboxamide] — the same, 100%
- O=C(c1cc(C(F)(F)F)n[nH]1)N(Cc1ccccc1F)CC1CCOC1 (stereo not drawn) [Example 150, N-(2-fluorobenzyl)-3-(trifluoromethyl)-N-((tetrahydrofuran-3-yl)methyl)-1H-pyrazole-5-carboxamide] — lower, 68%
- CCN1CCC(N(Cc2ccccc2F)C(=O)c2cc(C(F)(F)F)n[nH]2)C1 (stereo not drawn) [Example 152, N-(2-fluorobenzyl)-N-(1-ethylpyrrolidin-3-yl)-3-(trifluoromethyl)-1H-pyrazole-5-carboxamide] — lower, 68%
- O=C(c1cc(C(F)(F)F)n[nH]1)N(Cc1ccccc1F)C1CCCCC1 [Example 153, N-(2-fluorobenzyl)-N-cyclohexyl-3-(trifluoromethyl)-1H-pyrazole-5-carboxamide] — lower, 57%
- CCN(CC)CCN(Cc1cccc(N)c1)C(=O)c1cc(C(F)(F)F)n[nH]1 [Example 154, N-(3-aminobenzyl)-N-(2-(diethylamino)ethyl)-3-(trifluoromethyl)-1H-pyrazole-5-carboxamide] — the same, 100%
- CCNCCN(Cc1ccccc1F)C(=O)c1cc(C(F)(F)F)n[nH]1 [Example 155, N-(2-fluorobenzyl)-N-(2-(ethylamino)ethyl)-3-(trifluoromethyl)-1H-pyrazole-5-carboxamide] — the same, 100%
- O=C(c1cc(C(F)(F)F)n[nH]1)N(CCN1CCCC1)Cc1ccccc1F [Example 158, N-(2-fluorobenzyl)-3-(trifluoromethyl)-N-(2-(pyrrolidin-1-yl)ethyl)-1H-pyrazole-5-carboxamide] — the same, 100%
- CCN(CC)CCN(Cc1ccccc1Cl)C(=O)c1cc(C(F)(F)F)n[nH]1 [Example 159, N-(2-chlorobenzyl)-N-(2-(diethylamino)ethyl)-3-(trifluoromethyl)-1H-pyrazole-5-carboxamide] — the same, 100%
- CCN(CC)CCN(Cc1cccc2[nH]cnc12)C(=O)c1cc(C(F)(F)F)n[nH]1 [Example 160, N-((1H-benzo[d]imidazol-4-yl)methyl)-N-(2-(diethylamino)ethyl)-3-(trifluoromethyl)-1H-pyrazole-5-carboxamide] — the same, 100%
- CCN(CC)CCN(Cc1cccc2[nH]ccc12)C(=O)c1cc(C(F)(F)F)n[nH]1 [Example 161, N-((1H-indol-4-yl)methyl)-N-(2-(diethylamino)ethyl)-3-(trifluoromethyl)-1H-pyrazole-5-carboxamide] — the same, 100%

Same assay, conditions: read-out: PKM2 AC50; 2 nM PKM2, 75 μM ADP, 15 μM PEP, Kinase Glo

`O=C(c1cc(Br)n[nH]1)N(Cc1cccc2[nH]cnc12)CC1CCC1` [Example 120, N-((1H-benzo[d]imidazol-4-yl)methyl)-3-bromo-N-(cyclobutylmethyl)-1H-pyrazole-5-carboxamide] showed an AC50 of 1.33 µM.
